The values below come from ChEMBL document CHEMBL4052604, “Englerins: A Comprehensive Review” (J Nat Prod, 2017).

The pIC50 is −log10 of the IC50, conventionally taken in molar units.

pIC50: −log10 of the molar value.

Assay [1] concerns A498. Nature of the assay: Cytotoxicity against human A498 cells assessed as reduction in cell viability. The class given is functional, cell-based.
Assay [2] has as its system A498. Nature of the assay: Antiproliferative activity against human A498 cells after 48 hrs by sulphorhodamine B assay. It is filed as functional, cell-based. The conditions noted are these: A498, 48 h. A general note: In SRB staining, fixed cells bind dye roughly in proportion to their protein.

In the case of `C[C@@H]1CC[C@@H]2[C@@H]1[C@H](OC(=O)/C=C/c1ccccc1)[C@]1(C)C[C@@H](OC(=O)CO)[C@@]2(C)O1`, in the assay with A498 [1], the pIC50 was 5.34.

For the compound `CC(C)[C@@]12C[C@@H](C(=O)OCCO)[C@@](C)(O1)[C@@H]1CC[C@@H](C)[C@H]1[C@@H]2OC(=O)/C=C/c1ccccc1`, in the assay on A498 [2], the pIC50 is 7.32. For the compound `CC(C)[C@@]12C[C@@H](OC(=O)CO)[C@@](C)(O1)[C@@H]1CC[C@@H](C)[C@H]1[C@@H]2OC(=O)c1ccc(Cl)cc1Cl`, the pIC50 with A498 [1] is 6.55. Regarding `CC1(C)C2C[C@H](OC(=O)/C=C/c3ccccc3)C1(C)C[C@H]2OC(=O)CO` (stereo not given in full), the pIC50 in the assay with A498 [1] was 4.46. `CC[C@@]12C[C@@H](OC(=O)CO)[C@@](C)(O1)[C@@H]1CC[C@@H](C)[C@H]1[C@@H]2OC(=O)/C=C/c1ccccc1`: in the assay with A498 [1], the pIC50 is 6.02.
